Basal prolactin levels, breeding season and superovulation data for 1 compound are collected here from patent publication US4882137A, “Coated veterinary implants” (priority 1986, dated 1989).

One data set has as its system ewes. The settings on record: in vivo; cited from earlier work.
For another data set, the system named is Maiden Merino ewes. The settings on record: in vivo.

On to `COc1ccc2[nH]cc(CCNC(C)=O)c2c1` [Melatonin, N-acetyl 5-methoxy tryptamine], for which, in the data set on ewes, the basal prolactin levels result was “depressed” and the breeding season entry is recorded as “advanced”. Moreover, the superovulation entry in the data set with Maiden Merino ewes is listed as “does not induce superovulation”.
